Assay results published in patent US20230146923A1, “COMPOSITIONS AND METHODS FOR INHIBITION AND TARGETING OF P97” (California Institute of Technology, priority 2021, published 2023).
Where a SMILES comes first, the peptide text is derived from it. The star is where a group is joined. Cbz = O=C(OCc1ccccc1)*

What was measured:
E2F1 = E2F1 levels by qPCR and western blot; type: cell-based; conditions: HCT116, 6 h
Description: FIGS. 11A-11B show the effect of p97 inhibitors and MG132 on E2F1 expression in HCT116 cells. […] For both qPCR and western blot assays, HCT116 cells were treated for 6 h with DMSO, 1 μM of MG132 (MG), 2 μM of CB-5083 (CB) or 4 μM of NMS-873 (NMS), n=2, **** indicates p<0.0001, *** indicates p<0.001, * indicates p<0.05 according to unpaired t-test.
To determine if the decreased expression of E2F1 target genes was caused by the downregulation of E2F1 levels due to ER stress, qPCR and western blot were used to evaluate E2F1 levels. […] The transcriptional activity of E2F1 can also be repressed through the formation of a complex with the tumor suppressor protein retinoblastoma (RB1) (FIG. 10B). Hyperphosphorylation of RB1 by cyclin-D-cyclin-dependent kinase 4/6 complex (CCND1-CDK4/6) inactivates RB1 and induces the release of the E2F1 from the complex. The newly released E2F1 leads to transcriptional activation of target genes. […] This downregulation of CCND1 and CDK4 was further confirmed by western blot (FIG. 10D). […] Furthermore, the downregulation of CCND1 occurred after the upregulation of ATF3 (FIG. 10F). ATF3 is a stress-inducible gene, which binds to the cyclin D1 promoter and represses its transcription. Therefore, the upregulation of ATF3 potentially contribute to the downregulation of CCND1.

HCT116 cells = assay: Western blot of E2F1 related proteins and phos-4EBP1; type: cell-based
Description: FIGS. 9B-9C show network of E2F1 (FIG. 9B) and cMyb (FIG. 9C).
FIGS. 10A-10F depicts p97 inhibition impairs the transcriptional activity of E2F1 by downregulating the CCND1/CDK complex. […] Data was analyzed using the g:Profiler website. Shading indicates the gene is a potential target of transcription factor c-Myb or E2F1. Blank indicates it is not a target gene. FIG. 10B depicts known regulatory network of the CCND1/CDK/RB1/E2F1 pathway. […] HCT116 cells were treated with 1 μM MG132, 2 μM CB-5083 or 4 μM of NMS-874 for 6 h. FIGS. 10E and 10F show transcriptional activity of E2F1 measured using E2F1 reporter assay. HCT116 cells were transfected with pGL2-AN plasmid (Addgene: 20950) for 24 h. Then cells were plated in 384 well plate and incubated for 16 h. The luminescence were detected after 8 h treatment with MG132, CB-5083 or NMS-873. Data are shown as mean±SD, n=3. f, qRT-PCR analysis of ATF3, DHFR and CCND1 RNAs following treatment with MG132, CB-5083 or NMS-874. HCT116 cells were treated for 2, 6 and 24 h using the same concentration as proteomic and western blot assay (n=4).
To investigate whether the protein translation was inhibited by p97 or proteasome inhibitor, the phosphorylation state of eukaryotic translation initiation factor 4E-binding protein 1 (4E-BP1) was examined. Phosphorylation of 4E-BP1 serves to increase total protein translation. […] The effect of p97 inhibition on specific protein levels arises from a change in transcript levels. To examine how transcript levels might be affected, potential transcription factor binding sites (TFBSs) in the promoters of these 33 genes in the TRANSFAC database were examined. […] By examining protein-protein interaction networks related to E2F1 and MYB in the STRING database, 11 E2F1 interactors were found (FIG. 9B) and 11 MYB interactors (FIG. 9C). […] Therefore it was determined to further investigate the role of E2F1, rather than MYB, in cells responding to p97 and proteasome inhibition.
It was hypothesized that CCND1 and CDK4/6 upregulation by MG132 promotes RB1 hyperphosphorylation.

## CC(C)C[C@@H](C=O)NC(=O)[C@H](CC(C)C)NC(=O)[C@H](CC(C)C)NC(=O)OCc1ccccc1 [MG132] (Cbz-Leu-Leu-Leu-aldehyde)
E2F1; qPCR, 1 μM MG132, 2 μM CB-5083, 4 μM NMS-873
  E2F1 RNA levels: strongly downregulated
E2F1; western blot
  Protein level of E2F1: increased
HCT116 cells; HCT116, 6 h, western blot
  Phosphorylation of RB1: reduced phosphorylation of RB1
HCT116 cells; HCT116, 6 h of treatments
  Global protein translation (phosphorylation state of 4E-BP1): inhibit global protein translation
HCT116 cells; HCT116, TMT and western blot
  p21 (CDKN1A) level: significantly upregulated
